According to patent US11242327B2, “Analgesic compounds” (RECURIUM IP HOLDINGS, LLC, priority 2017, dated 2022):

What was measured:
[1] = Bioavailability Test (rat pharmacokinetics); type: in vivo; conditions: for F: PO 30 mg/kg vs IV 3 mg/kg; for AUC(0-inf) / clearance / half-life / Vd / Cmax / Tmax: male, Sprague-Dawley, in vivo; for Vd: read-out: Vdss
Procedure: Oral bioavailability of compounds of Formulae (Ie), (Ih), (Ik), and (Ir), or a pharmaceutically acceptable salt of any of the foregoing, were evaluated in fasted male Sprague-Dawley (SD) rats weighing 200-225g. Compounds were dosed at 3 mg/kg (IV) and 30 mg/kg (PO). Unless otherwise noted, compounds were dissolved in 0.9% saline for IV dosing and 100% sterile water for PO dosing. Pharmacokinetic parameters were determined using Phoenix WinNonlin (v7.0). […]

Opiate κ = Opiate κ (Homo sapiens, UniProt P41145); assay: NSAIDS and Opioid Receptor Test: Opiate κ; type: binding; conditions: 10 μM
Chain of Opiate κ (P41145 whole entry): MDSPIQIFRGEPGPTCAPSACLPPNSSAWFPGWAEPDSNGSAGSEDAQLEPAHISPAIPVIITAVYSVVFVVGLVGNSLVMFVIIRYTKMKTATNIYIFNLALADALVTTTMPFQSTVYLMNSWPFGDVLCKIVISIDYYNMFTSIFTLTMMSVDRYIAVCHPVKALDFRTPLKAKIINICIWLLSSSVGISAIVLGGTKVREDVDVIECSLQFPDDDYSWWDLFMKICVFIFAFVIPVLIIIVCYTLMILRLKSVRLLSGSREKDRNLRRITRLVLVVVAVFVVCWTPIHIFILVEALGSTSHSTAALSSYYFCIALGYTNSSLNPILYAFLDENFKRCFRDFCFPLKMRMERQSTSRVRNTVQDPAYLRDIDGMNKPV
Procedure: (§1) Compounds were screened as DMSO solutions at 10 μM, 100 μM, or 200 μM and values represent percent inhibition of control-specific binding. […] As NSAID and opioid mechanisms of action are precluded, a person of ordinary skill in the art understands that undesirable side effects associated with inhibition of COX receptors in NSAIDs and activation of opiate receptors in opioids can be avoided by compounds described herein. Furthermore, opioids are known to lose their analgesic potency after to continued administration. (See Benyamin, et al. “Opioid Complications and Side Effects” Pain Physician 11 (2008): S105-S120). As the data indicates compounds described herein have a different mechanism action compared to opioids, a person of ordinary skill in the art would appreciate that compounds described herein would not be expected to lose their analgesic potency like opioids after continued admininistration.

male Sprague-Dawley rats [2] = assay: Formalin Paw Test, rat, oral; type: in vivo; conditions: 30 mg/kg; for Early Phase, seconds of paw licking: early/acute phase (0-10 minutes); for Late Phase, seconds of paw licking: late/tonic phase (10-35 minutes)
Outline: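 Paw licking recorded every 5 min for 35 min after formalin injection, in groups of 8 non-fasted males: Sprague-Dawley rats (200–225 g) dosed orally or ICR mice (23±3 g) dosed intraperitoneally. Scores are licking-time bins: A <70 s, B 70–165 s, C >165 s.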

COX-2 = target: T1, COX-2 (Homo sapiens, UniProt P35354); assay: NSAIDS and Opioid Receptor Test: COX-2; type: biochemical; conditions: 200 μM
T1 sequence (P35354 18-604): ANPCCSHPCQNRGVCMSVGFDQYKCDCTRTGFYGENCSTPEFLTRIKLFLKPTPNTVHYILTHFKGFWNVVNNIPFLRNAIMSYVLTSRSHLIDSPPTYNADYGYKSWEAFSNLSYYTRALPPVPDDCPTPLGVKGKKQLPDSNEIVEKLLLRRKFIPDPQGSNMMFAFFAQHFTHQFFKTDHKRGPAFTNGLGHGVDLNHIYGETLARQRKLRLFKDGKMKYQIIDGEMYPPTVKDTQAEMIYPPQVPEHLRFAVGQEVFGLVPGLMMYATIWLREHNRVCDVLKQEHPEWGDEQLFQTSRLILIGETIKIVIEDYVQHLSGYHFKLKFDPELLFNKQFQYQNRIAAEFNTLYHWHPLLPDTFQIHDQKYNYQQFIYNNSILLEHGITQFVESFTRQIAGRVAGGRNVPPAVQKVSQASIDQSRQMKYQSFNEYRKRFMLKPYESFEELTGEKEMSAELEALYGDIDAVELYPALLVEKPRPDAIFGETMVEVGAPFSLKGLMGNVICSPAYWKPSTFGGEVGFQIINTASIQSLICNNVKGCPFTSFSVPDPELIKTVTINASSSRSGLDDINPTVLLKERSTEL
Procedure: as §1

Opiate δ2 = Opiate δ2 (Homo sapiens, UniProt P41143); assay: NSAIDS and Opioid Receptor Test: Opiate δ2; type: binding; conditions: 10 μM
Chain of Opiate δ2 (P41143 whole entry): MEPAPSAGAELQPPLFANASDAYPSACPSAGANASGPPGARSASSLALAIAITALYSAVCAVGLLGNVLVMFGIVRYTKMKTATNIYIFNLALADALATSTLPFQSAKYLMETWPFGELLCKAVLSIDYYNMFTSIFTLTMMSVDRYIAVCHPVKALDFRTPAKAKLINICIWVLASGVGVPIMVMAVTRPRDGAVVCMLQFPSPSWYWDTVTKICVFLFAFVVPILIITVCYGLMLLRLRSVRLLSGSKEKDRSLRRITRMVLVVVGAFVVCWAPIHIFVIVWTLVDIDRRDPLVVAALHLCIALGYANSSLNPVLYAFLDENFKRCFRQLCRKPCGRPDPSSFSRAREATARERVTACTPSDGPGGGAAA
Procedure: as §1

male Sprague-Dawley rats [3] = assay: UVB Inflammatory Pain Test (thermal hyperalgesia); type: in vivo; conditions: rat, oral; for paw withdrawal latency, 1 h: 1 h after dosing; for paw withdrawal latency, 2 h: 2 h after dosing; for paw withdrawal latency, 4 h: 4 h after dosing
Outline: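 Left hind-paw plantar UVB (350 mJoules/cm^2) given on Day −3 to male Sprague-Dawley rats; on Day 0, test compounds dosed orally at 3, 10, 30 or 100 mg/kg, with water vehicle, celecoxib 30 mg/kg and acetaminophen 300 mg/kg. Radiant-heat paw withdrawal latency (mean of 3, 30 s cutoff) measured before dosing and about 1, 2 and 4 h after.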

COX-1 = COX-1 (Homo sapiens, UniProt P23219); assay: NSAIDS and Opioid Receptor Test: COX-1; type: biochemical; conditions: 200 μM
Chain of COX-1 (P23219 24-599): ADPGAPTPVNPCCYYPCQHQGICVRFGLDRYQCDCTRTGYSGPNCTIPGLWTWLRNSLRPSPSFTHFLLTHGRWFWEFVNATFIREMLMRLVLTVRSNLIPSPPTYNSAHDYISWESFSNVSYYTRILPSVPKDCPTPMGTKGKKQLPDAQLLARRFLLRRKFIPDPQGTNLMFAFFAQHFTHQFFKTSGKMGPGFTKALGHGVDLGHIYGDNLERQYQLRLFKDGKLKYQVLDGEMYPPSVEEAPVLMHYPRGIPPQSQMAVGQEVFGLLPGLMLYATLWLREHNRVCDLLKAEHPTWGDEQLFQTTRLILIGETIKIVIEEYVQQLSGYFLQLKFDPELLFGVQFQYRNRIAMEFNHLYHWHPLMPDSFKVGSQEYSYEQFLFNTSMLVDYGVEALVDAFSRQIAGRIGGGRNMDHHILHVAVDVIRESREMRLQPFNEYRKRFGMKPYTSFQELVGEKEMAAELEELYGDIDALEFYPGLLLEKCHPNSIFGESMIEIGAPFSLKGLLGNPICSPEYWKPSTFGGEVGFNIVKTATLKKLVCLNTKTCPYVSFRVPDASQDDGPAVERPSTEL
Procedure: as §1

Row | SMILES | F [1] | AUC(0-inf) ([1]; IV 3 mg/kg, 0.9% saline) | clearance ([1]; IV 3 mg/kg, 0.9% saline) | half-life ([1]; IV 3 mg/kg, 0.9% saline) | Vd ([1]; IV 3 mg/kg, 0.9% saline) | AUC(0-inf) ([1]; PO 30 mg/kg, sterile water) | Cmax ([1]; PO 30 mg/kg, sterile water) | Tmax ([1]; PO 30 mg/kg, sterile water) | half-life ([1]; PO 30 mg/kg, sterile water) | inhibition at 10 µM (Opiate κ) | Early Phase, seconds of paw licking (male Sprague-Dawley rats [2]) | Late Phase, seconds of paw licking (male Sprague-Dawley rats [2]) | inhibition at 10 µM (Opiate δ2) | paw withdrawal latency, 1 h (male Sprague-Dawley rats [3]; 3 mg/kg) | paw withdrawal latency, 2 h (male Sprague-Dawley rats [3]; 3 mg/kg) | paw withdrawal latency, 4 h (male Sprague-Dawley rats [3]; 3 mg/kg) | paw withdrawal latency, 1 h (male Sprague-Dawley rats [3]; 10 mg/kg) | paw withdrawal latency, 2 h (male Sprague-Dawley rats [3]; 10 mg/kg) | paw withdrawal latency, 4 h (male Sprague-Dawley rats [3]; 10 mg/kg) | paw withdrawal latency, 1 h (male Sprague-Dawley rats [3]; 30 mg/kg) | also measured
1 | Cc1sc(C23CC(N)(C2)C3)nc1C(F)(F)F.Cl [Compound 2, 3-(5-Methyl-4-(trifluoromethyl)thiazol-2-yl)bicyclo[1.1.1]pentan-1-amine hydrochloride] | 79% | 4 µM·h | 52 mL/min/kg | 2.7 h | 3.6 L/kg | 29 µM·h | 12 µM | 1 h | 2.4 h | -9% | A (<70 seconds of paw licking) | A (<70 seconds of paw licking) | 10% | A (>8 seconds of paw withdrawal latency) | A (>8 seconds of paw withdrawal latency) | A (>8 seconds of paw withdrawal latency) | A (>8 seconds of paw withdrawal latency) | B (>6 and <8 seconds of paw withdrawal latency) | A (>8 seconds of paw withdrawal latency) | A (>8 seconds of paw withdrawal latency) | inhibition at 200 µM (COX-2): -2%; paw withdrawal latency, 2 h (male Sprague-Dawley rats [3]; 30 mg/kg): A (>8 seconds of paw withdrawal latency); paw withdrawal latency, 4 h (male Sprague-Dawley rats [3]; 30 mg/kg): B (>6 and <8 seconds of paw withdrawal latency); paw withdrawal latency, 1 h (male Sprague-Dawley rats [3]; 100 mg/kg): A (>8 seconds of paw withdrawal latency); paw withdrawal latency, 2 h (male Sprague-Dawley rats [3]; 100 mg/kg): A (>8 seconds of paw withdrawal latency); paw withdrawal latency, 4 h (male Sprague-Dawley rats [3]; 100 mg/kg): A (>8 seconds of paw withdrawal latency); inhibition at 200 µM (COX-1): 15%
2 | Cl.NC12CC(c3nc(C(F)(F)F)cs3)(C1)C2 [Compound 1, 3-(4-(Trifluoromethyl)thiazol-2-yl)bicyclo[1.1.1]pentan-1-amine hydrochloride] | 115% | 19.2 µM·h | 11 mL/min/kg | 3.1 h | 1.4 L/kg | 277 µM·h | 49 µM | 0.3 h | 5.6 h | -4% | A (<70 seconds of paw licking) | B (>70 and <165 seconds of paw licking) | 7% | B (>6 and <8 seconds of paw withdrawal latency) | B (>6 and <8 seconds of paw withdrawal latency) | B (>6 and <8 seconds of paw withdrawal latency) | B (>6 and <8 seconds of paw withdrawal latency) | B (>6 and <8 seconds of paw withdrawal latency) | B (>6 and <8 seconds of paw withdrawal latency) | A (>8 seconds of paw withdrawal latency) | paw withdrawal latency, 2 h (male Sprague-Dawley rats [3]; 30 mg/kg): A (>8 seconds of paw withdrawal latency); paw withdrawal latency, 4 h (male Sprague-Dawley rats [3]; 30 mg/kg): A (>8 seconds of paw withdrawal latency); paw withdrawal latency, 1 h (male Sprague-Dawley rats [3]; 100 mg/kg): A (>8 seconds of paw withdrawal latency); paw withdrawal latency, 2 h (male Sprague-Dawley rats [3]; 100 mg/kg): A (>8 seconds of paw withdrawal latency); paw withdrawal latency, 4 h (male Sprague-Dawley rats [3]; 100 mg/kg): A (>8 seconds of paw withdrawal latency)
